Measured values published in patent US20070281302A1 (priority 1998, published 2007).
Entries after “also recorded” stand apart in the source; their conditions may differ. No end group written: not given here.

Tests used:
[1] = system: B. anthracis spores (Sterne, delta-Ames); type: binding, Bacillus anthracis
[2] = system: spores of the other Bacillus strains; type: binding
[3] = system: B. anthracis (Sterne and ΔAmes) spores; type: binding, Bacillus anthracis
spores of B. cereus T = type: binding, Bacillus cereus
[4] = system: spores of 15 of the other Bacillus strains; type: binding
[5] = system: spores of B. thuringiensis subsp. kurstaki; type: binding, Bacillus thuringiensis
B. cereus T spores = type: binding, Bacillus cereus
[6] = system: B. thuringiensis subsp. kurstaki spores; type: binding, Bacillus thuringiensis
[7] = system: Bacillus spores of each experiment shown in FIG. 3; type: binding
B. cereus T spore = type: binding, Bacillus cereus
spores of B. subtilis = type: binding, Bacillus subtilis
B. subtilis spores = type: binding, Bacillus subtilis
[8] = system: B. anthracis spores (delta-Ames, Sterne); type: binding, Bacillus anthracis
[9] = system: vegetative cells of the Sterne and ΔAmes strains; type: binding, Bacillus anthracis
spores of B. cerues T = type: binding, Bacillus cereus

## ATYPLPIRGGGC-PE (PE conjugate)
[1]
  fluorescent labeling of spores: completely encircled by fluorescent ligand; also recorded: readily detectable
[2]
  fluorescent labeling of spores: not other strains; also recorded: essentially nonfluorescent
[3]
  binding of the conjugate to spores: extensive binding
  enhancement of binding relative to TYPLPIRGGGC-PE: ~10 fold
Spores of B. cereus T
  fluorescent labeling of spores: low-level but detectable binding
[4]
  binding of the conjugate to spores: did not permit detectable binding; also recorded: No peptide-conjugate binding was observed
[5]
  fluorescent labeling of spores: low-level but detectable binding
B. cereus T spores
  binding of the conjugate to spores: limited binding
  binding relative to TYPLPIRGGGC-PE: only slightly enhanced
[6]
  binding of the conjugate to spores: limited binding
  binding relative to TYPLPIRGGGC-PE: only slightly enhanced

## HWHHHGHGGGC (also: PE conjugate) [HWHHHGHGGGC-PE]
[7]
  spore binding of control peptide-PE conjugates: No significant binding

## ILPRPYTGGGC (also: PE conjugate) [ILPRPYTGGGC-PE]
[7]
  spore binding of control peptide-PE conjugates: No significant binding

## LLSPLHR [Sequence 6 (Table 5)]
B. cereus T spore
  number of phage containing the sequence: 6. (2)

## NHFL (B. subtilis)
Spores of B. subtilis
  binding to the spores (ligand quality): poor ligand

## NHFLP (B. subtilis)
Spores of B. subtilis
  binding to the spores (ligand quality): tight binding

## NHFLPKV [Isolate 4 (Table 1)]
B. subtilis spores
  binding of the peptide to the spore: bound tightly
  eluted phage examined that contained the sequence: Seven of the ten
  enrichment of this phage: 700 fold

## SLLPGLPGGGC-PE (PE conjugate)
[3]
  binding of the conjugate to spores: no binding
[4]
  binding of the conjugate to spores: No peptide-conjugate binding was observed
B. cereus T spores
  binding of the conjugate to spores: extensive binding
[6]
  binding of the conjugate to spores: extensive binding

## THRLPSR [Sequence 1 (Table 5)]
B. cereus T spore
  number of phage containing the sequence: 1. (2)

## TYPIPFR [Isolate 6 (Table 3)]
[8]
  number of phage containing the sequence: three

## TYPIPIR [Isolate 5 (Table 3)]
[8]
  number of phage containing the sequence: three

## TYPLPIRGGGC-PE (PE conjugate)
[3]
  binding of the peptide-PE conjugate to spores: concentration-dependent binding
  effect of bovine serum albumin on conjugate binding: not inhibited
[4]
  binding of the peptide-PE conjugate to spores: did not bind
  binding of the peptide-PE conjugate to spores at the highest concentration: minimal binding
[9]
  binding to vegetative cells: did not bind
B. cereus T spores
  binding of the peptide-PE conjugate to spores, compared with B. anthracis spores: weaker (or less extensive)
[6]
  binding of the peptide-PE conjugate to spores, compared with B. anthracis spores: weaker (or less extensive)

## TYPVPHR [Isolate 9 (Table 3)]
[8]
  number of phage containing the sequence: once

## WSPLHKH [Sequence 8 (Table 5)]
Spores of B. cerues T
  binding to spores: tight binding
  eluted phage that contained the sequence: Six of the twenty
  enrichment of this phage: 300 fold
